The values that follow come from patent US9765039B2, “Biaryl derivatives as bromodomain inhibitors” (Zenith Epigenetics Ltd., priority 2012, dated 2017).

One series has as its system c-myc. In words: Inhibition of c-myc expression in cancer cell lines (mRNA, real-time PCR). Conditions: Human AML MV4-11 cells, 3 hours. The arrangement: key: Active: Compounds with an IC50 value less than 30 μM were deemed to be active. Format: cell-based. How it is done:
MV4-11 cells (2.5×10^4 cells) were plated in 96 well U-bottom plates with test compound or DMSO (0.1%), and incubated for 3 hours at 37° C. Cells were then harvested by centrifugation, lysed, and mRNA was isolated using the mRNA catcher plus kit (Invitrogen). Reverse transcription of the mRNA and duplex amplification of the c-myc and cyclophilin cDNAs was performed using the RNA Ultrasense kit (Invitrogen) and a ViiA7 real-time PCR machine (Applied Biosystems). IC50 values were determined from a dose response curve.
(In qPCR the cycle at which signal appears reflects the starting amount.)

The subject of a further series is Human AML MV-4-11 cells. As to the kind of experiment: Inhibition of cell proliferation in cancer cell lines (CellTiter Aqueous One). Format: cell-based. More on the design: key: Active: Compounds with an IC50 value less than 30 μM were deemed to be active.; Not Active: Compounds with an IC50 value less than 30 μM were deemed to be active. Conditions: 72 hours. How it is done: MV4-11 cells: 96-well plates were seeded with 5×10^4 cells per well of exponentially growing human AML MV-4-11 (CRL-9591) cells and immediately treated with two-fold dilutions of test compounds, ranging from 30 μM to 0.2 μM. Triplicate wells were used for each concentration, as well as a media only and three DMSO control wells. The cells and compounds were incubated at 37° C., 5% CO2 for 72 hours before adding 20 μL of the CellTiter Aqueous One Solution (Promega) to each well and incubating at 37° C., 5% CO2 for an additional 3-4 hours. The absorbance was taken at 490 nm in a spectrophotometer and the percentage of proliferation relative to DMSO-treated cells was calculated after correction from the blank well. IC50 were calculated using the GraphPad Prism software.

For another series, the target named is T1, Brd4 bromodomain 1 (Homo sapiens, UniProt O60885).
T1 construct: made in house; host or cells: E. coli BL21(DE3)
In words: Inhibition of tetra-acetylated histone H4 binding to BET bromodomains (TR-FRET). More on the design: key: Active: Compounds with an IC50 value less than 30 μM were deemed to be active.; Not Active: Compounds with an IC50 value less than 30 μM were deemed to be active. The conditions noted are these: first bromodomain of Brd4, tetra-acetylated histone H4 peptide. The method, then:
Proteins were cloned and overexpressed with a N-terminal 6×His tag, then purified by nickel affinity followed by size exclusion chromatography. Briefly, E. coli BL21(DE3) cells were transformed with a recombinant expression vector encoding N-terminally Nickel affinity tagged bromodomains from Brd2, Brd3, Brd4. Cell cultures were incubated at 37° C. with shaking to the appropriate density and induced overnight with IPTG. The supernatant of lysed cells was loaded onto Ni-IDA column for purification. Eluted protein was pooled, concentrated and further purified by size exclusion chromatography. Fractions representing monomeric protein were pooled, concentrated, aliquoted, and frozen at −80° C. for use in subsequent experiments.
Binding of tetra-acetylated histone H4 and BET bromodomains was confirmed by a Time Resolved Fluorescence Resonance Energy Transfer (TR-FRET) method. N-terminally His-tagged bromodomains (200 nM) and biotinylated tetra-acetylated histone H4 peptide (25-50 nM, Millipore) were incubated in the presence of Europium Cryptate-labeled streptavidin (Cisbio Cat. #610SAKLB) and XL665-labeled monoclonal anti-His antibody (Cisbio Cat. #61HISXLB) in a white 96 well microtiter plate (Greiner). For inhibition assays, serially diluted test compound was added to these reactions in a 0.2% final concentration of DMSO. Final buffer concentrations were 30 mM HEPES pH 7.4, 30 mM NaCl, 0.3 mM CHAPS, 20 mM phosphate pH 7.0, 320 mM KF, 0.08% BSA). After 2 hours incubation at room temperature, the fluorescence by FRET was measured at 665 and 620 nm by a SynergyH4 plate reader (Biotek). Illustrative results with the first bromodomain of Brd4 are shown below (Table 1). The binding inhibitory activity was shown by a decrease in 665 nm fluorescence relative to 620 nm. IC50 values were determined from a dose response curve.
(In general: TR-FRET usually uses a lanthanide donor and a delayed reading to cut background.)

The next series relates to hIL-6 mRNA. In words: Inhibition of hIL-6 mRNA transcription in LPS-stimulated U937 macrophages. The class given is cell-based, human. More on the design: key: Active: Compounds with an IC50 value less than 30 μM are deemed to be active. Conditions: U937 differentiated into macrophages, 1 h pretreatment, lipopolysaccharide 3 h. The method, then:
In this example, hIL-6 mRNA in tissue culture cells was quantitated to measure the transcriptional inhibition of hIL-6 when treated with a compound of the present disclosure.
A human leukemic monocyte lymphoma cell line (U937) was plated (3.2×10^4 cells per well) in a 96-well plate in 100 μL RPMI-1640 containing 10% FBS and penicillin/streptomycin, and differentiated into macrophages for 3 days in 60 ng/mL PMA ([…]) at 37° C. in 5% CO2 prior to the addition of the compound of interest. The cells were pretreated for 1 h with the test compound prior to stimulation with […] lipopolysaccharide from Escherichia coli. The cells were incubated at 37° C. for 3 h before the cells were harvested. At time of harvest, the spent media was removed from the cells and the cells were rinsed in 200 μL PBS. Cell lysis solution (70 μL) was added the cells in each well and incubated for 5-10 min at room temperature, to allow for complete cell lysis and detachment. mRNA was then prepared using the “mRNA Catcher PLUS plate” (Invitrogen), according to the protocol supplied. After the last wash, as much wash buffer as possible was aspirated without allowing the wells to dry. Elution buffer (E3, 70 μL) was then added to each well. mRNA was then eluted by incubating the mRNA Catcher PLUS plate with Elution Buffer for 5 min at 68° C. and then immediately placing the plate on ice.
The eluted mRNA isolated was then used in a one-step quantitative real-time PCR reaction, using components of the Ultra Sense Kit together with Applied Biosystems primer-probe mixes. Real-time PCR data was analyzed, normalizing the Ct values for hIL-6 to an internal control, prior to determining the fold induction of each unknown sample, relative to the control.

Where a name gives a salt, the structure may show the parent alone.

Usually melting point stands for the temperature of the solid-liquid transition. The compound `COc1cccc2nc(-c3ccc(OCCNC(C)C)c(-c4ccc(S(C)(=O)=O)cc4)n3)[nH]c(=O)c12` [Example 64, 2-(5-(2-(Isopropylamino)ethoxy)-6-(4-(methylsulfonyl)phenyl)pyridin-2-yl)-5-methoxyquinazolin-4(3H)-one] displayed a melting point of 222 to 223 °C. The “c-myc activity (IC50 < 30 μM)” value in the series with c-myc is reported as “Active”. Besides, the “cell proliferation activity (IC50 < 30 μM)” value (shortened to “cell proliferation activity”) in the series on Human AML MV-4-11 cells is “Active”. On Brd4 bromodomain 1, the “FRET activity (IC50 < 30 μM)” value was “Active”. Besides, the “IL-6 activity (IC50 < 30 μM)” value in the series with hIL-6 mRNA is on record as “Active”.

`CCS(=O)(=O)c1ccc(-c2nc(-c3nc4cc(OC)cc(OC)c4c(=O)[nH]3)ccc2OCCN2CCCC2)cc1` (as salt: hydrochloride) [Example 42, 2-(6-(4-(Ethylsulfonyl)phenyl)-5-(2-(pyrrolidin-1-yl)ethoxy)pyridin-2-yl)-5,7-dimethoxyquinazolin-4(3H)-one] displayed a melting point of 235 to 236 °C.

Take `COc1cc(OC)c2c(=O)[nH]c(-c3ccc(OCCNC(C)C)c(-c4ccccc4S(C)(=O)=O)n3)nc2c1` [Example 32, 2-(5-(2-(Isopropylamino)ethoxy)-6-(2-(methylsulfonyl)phenyl)pyridin-2-yl)-5,7-dimethoxyquinazolin-4(3H)-one]: the melting point is 178 to 180 °C. Moreover, the “FRET activity (IC50 < 30 μM)” value on Brd4 bromodomain 1 is on record as “Active”. The “IL-6 activity (IC50 < 30 μM)” value in the series with hIL-6 mRNA is recorded as “Not Active”.

In turn, `COc1cc(OC)c2c(=O)[nH]c(-c3ccc(OC)c(-c4ccc(C(=O)N(C)C)cc4C)n3)nc2c1` [Example 54, 4-(6-(5,7-Dimethoxy-4-oxo-3,4-dihydroquinazolin-2-yl)-3-methoxypyridin-2-yl)-N,N,3-trimethylbenzamide] gave a melting point of 248 to 251 °C. The “c-myc activity (IC50 < 30 μM)” value in the series with c-myc is recorded as “Not Active”. Besides, the “cell proliferation activity” value in the series with Human AML MV-4-11 cells is “Not Active”. Also, the “FRET activity (IC50 < 30 μM)” value at Brd4 bromodomain 1 is “Active”. Moreover, the “IL-6 activity (IC50 < 30 μM)” value in the series with hIL-6 mRNA is “Active”.

In the case of `COc1cccc2nc(-c3ccc(OCCO)c(-c4ccc(S(C)(=O)=O)cc4)n3)[nH]c(=O)c12` [Example 62, 2-(5-(2-Hydroxyethoxy)-6-(4-(methylsulfonyl)phenyl)pyridin-2-yl)-5-methoxyquinazolin-4(3H)-one], the melting point was more than 300 °C. Further, the “FRET activity (IC50 < 30 μM)” value on Brd4 bromodomain 1 is on record as “Active”. In addition, in the series on hIL-6 mRNA, the “IL-6 activity (IC50 < 30 μM)” value is reported as “Active”.

Turning to `COc1ccc(-c2nc3cccc(OC)c3c(=O)[nH]2)nc1-c1ccc([S+](C)[O-])cc1` (stereo not drawn) [Example 57, 5-Methoxy-2-(5-methoxy-6-(4-(methylsulfinyl)phenyl)pyridin-2-yl)quinazolin-4(3H)-one], the melting point was in the range of 308 to 310 °C. Moreover, the “c-myc activity (IC50 < 30 μM)” value in the series on c-myc is listed as “Not Active”. Besides, the “cell proliferation activity” value in the series with Human AML MV-4-11 cells is on record as “Not Active”. Also, the “FRET activity (IC50 < 30 μM)” value at Brd4 bromodomain 1 is reported as “Active”. Also, the “IL-6 activity (IC50 < 30 μM)” value in the series with hIL-6 mRNA was “Active”.

With `CCS(=O)(=O)c1ccc(-c2nc(-c3nc4cc(OC)cc(OC)c4c(=O)[nH]3)ccc2OCCN2CCOCC2)cc1` (as salt: hydrochloride) [Example 43, 2-(6-(4-(Ethylsulfonyl)phenyl)-5-(2-morpholinoethoxy)pyridin-2-yl)-5,7-dimethoxyquinazolin-4(3H)-one], the melting point was 245 °C (dec.).

Turning to `COc1cc(OC)c2c(=O)[nH]c(-c3cccc(-c4ccc([S+](C)[O-])cc4)c3)nc2c1` (stereo not drawn) [Example 47, 5,7-Dimethoxy-2-(4′-(methylsulfinyl)-[1,1′-biphenyl]-3-yl)quinazolin-4(3H)-one], the melting point is more than 300 °C. Also, the “FRET activity (IC50 < 30 μM)” value on Brd4 bromodomain 1 was “Not Active”. In addition, in the series on hIL-6 mRNA, the “IL-6 activity (IC50 < 30 μM)” value is “Not Active”.

The compound `COc1cc(OC)c2c(=O)[nH]c(-c3ccc(OCCO)c(-c4ccc(S(C)(=O)=O)cc4)n3)nc2c1` (as salt: methanesulfonate) [Example 25, 2-(5-(2-Hydroxyethoxy)-6-(4-(methylsulfonyl)phenyl)pyridin-2-yl)-5,7-dimethoxyquinazolin-4(3H)-one methanesulfonate] yielded a melting point of 134 to 136 °C.

In the case of `C[S+]([O-])c1ccc(-c2nc(-c3nc4ccccc4c(=O)[nH]3)ccc2OCCO)cc1` (stereo not drawn) [Example 61, 2-(5-(2-Hydroxyethoxy)-6-(4-(methylsulfinyl)phenyl)pyridin-2-yl)quinazolin-4(3H)-one], the melting point lay within 261 to 262 °C. In addition, at Brd4 bromodomain 1, the “FRET activity (IC50 < 30 μM)” value is “Active”.

The compound `COc1cc(OC)c2c(=O)[nH]c(-c3ccc(OCCO)c(-c4ccccc4S(C)(=O)=O)n3)nc2c1` [Example 30, 2-(5-(2-Hydroxyethoxy)-6-(2-(methylsulfonyl)phenyl)pyridin-2-yl)-5,7-dimethoxyquinazolin-4(3H)-one] returned a melting point of 92 to 93 °C. Moreover, on Brd4 bromodomain 1, the “FRET activity (IC50 < 30 μM)” value is given as “Active”.

As to `CC(C)NCCOc1ccc(-c2nc3ccccc3c(=O)[nH]2)nc1-c1ccc(S(C)(=O)=O)cc1` [Example 68, 2-(5-(2-(Isopropylamino)ethoxy)-6-(4-(methylsulfonyl)phenyl)pyridin-2-yl)quinazolin-4(3H)-one], the melting point lay within 188 to 189 °C. Further, the “FRET activity (IC50 < 30 μM)” value on Brd4 bromodomain 1 is recorded as “Active”.

The compound `COc1cc(OC)c2c(=O)[nH]c(-c3ccc(OCCO)c(-c4ccccc4)n3)nc2c1` [Example 21, 2-(5-(2-Hydroxyethoxy)-6-phenylpyridin-2-yl)-5,7-dimethoxyquinazolin-4(3H)-one] gave a melting point of 240 to 242 °C. Moreover, the “FRET activity (IC50 < 30 μM)” value at Brd4 bromodomain 1 was “Active”. In addition, in the series with hIL-6 mRNA, the “IL-6 activity (IC50 < 30 μM)” value is on record as “Active”.

On to `COc1cc(OC)c2c(=O)[nH]c(-c3ccc(OCCNC(C)C)c(-c4cccc(S(C)(=O)=O)c4)n3)nc2c1` [Example 33, 2-(5-(2-(Isopropylamino)ethoxy)-6-(3-(methylsulfonyl)phenyl)pyridin-2-yl)-5,7-dimethoxyquinazolin-4(3H)-one], for which the melting point lay in the range of 222 to 223 °C. Besides, the “FRET activity (IC50 < 30 μM)” value at Brd4 bromodomain 1 is given as “Active”. Besides, the “IL-6 activity (IC50 < 30 μM)” value in the series with hIL-6 mRNA was “Not Active”.
